Experimental findings from patent US4987126A, “3'-deamino-4'-deoxy-4'-amino anthracyclines” (Farmitalia Carlo Erba S.r.l., priority 1988, dated 1991) are described below.

One data set relates to murine Gross leukemia. As to the kind of experiment: Effect against murine Gross leukemia. Type of data set: in vivo, murine (C3H/He mice). Conditions: for T/C % (median survival time of treated mice/median survival time of control × 100): Gross leukemia, C3H/He mice, 2 × 10^6 cells i.v., single i.v. dose day 1 at optimal dose (mg/Kg): DNR 15, DXR 13-16.9, Ib 65, Ia 12.5, IIa 4, Id 6.7, IIc 1; for Toxic death: Gross leukemia-bearing C3H/He mice, autoptic findings, at optimal dose (mg/Kg): DNR 15, DXR 13-16.9, Ib 65, Ia 12.5, IIa 4, Id 6.7, IIc 1; for activity on increase of the survival time of mice, Gross leukemia (in words): mouse, in vivo; for potency on Gross leukemia (in words): among all compounds tested. As to the method:
(§1) The antileukemic activity of Ia and IIa, in comparison with DXR (doxorubicin) and DNR (daunorubicin), was tested against murine P388 and Gross Leukemias.
(§2) The compounds were tested by dissolving them, as hydrochlorides, in water.
^a Experiments were performed in C3H/He mice, inoculated i.v. with 2
(§3) ^b Single i.v. dose on day 1 after tumor inoculum.
(§4) ^c Median survival time of treated mice/median survival time of
^3 Evaluated on the basis of autoptic findings.

In the next data set the test system is P388 ascitic leukemia. The data set can be described thus: Effect against P388 ascitic leukemia. Type of data set: in vivo, murine (CDF1 mice). Conditions: for T/C % (median survival time of treated mice/median survival time of control × 100): P388, CDF1 mice, 10^6 cells i.v., single i.v. dose day 1 at optimal dose (mg/Kg): DNR 22.5, DXR 16.9, Ia 19.5, IIa 4; for Toxic death: P388-bearing CDF1 mice, autoptic findings, at optimal dose (mg/Kg): DNR 22.5, DXR 16.9, Ia 19.5, IIa 4. On the procedure:
as §1, §2
^a Experiments were performed in CDF1 mice, inoculated i.v. with
as §3, §4
^d Evaluated on the basis of autoptic findings.

Data set [1] deals with Human Colon ca. (LoVo/DXR). The data set can be described thus: Effect against Human Colon ca. (LoVo/DXR). Type of data set: in vivo, human (tumor transplanted in Swissnude mice). The following applies: i.v. once a week for three weeks, 1 week after last treatment; optimal dose (mg/Kg): DXR 6, Ia 7.5, IIa 4. As to the method: as §2
(§5) ^a experiment was performed in Swissnude mice, transplanted s.c. with
(§6) ^b treatment i.v. was carried out once a week for three weeks,
(§7) starting when the tumor was palpable
(§8) ^c percentage of tumor growth inhibition in respect to control was
(§9) calculated 1 week after the last treatment

For data set [2], the system named is Human Colon adenocarcinoma (LoVo). The data set can be described thus: Effect against Human Colon adenocarcinoma (LoVo). Type of data set: in vivo, human (tumor transplanted in Swissnude mice). Conditions: for tumor inhibition: i.v. once a week for three weeks, 1 week after last treatment, optimal dose (mg/Kg): DNR 8 tox, DXR 6, Ia 7.5, IIa 4-5; for activity on LoVo tumor (in words): in vivo. As to the method:
as §2
^1 experiment was performed in Swissnude mice, transplanted s.c. with
as §6, §7, §8, §9

For data set [3], the system named is human lung adenocarcinoma (A549). The data set can be described thus: Effect against human lung adenocarcinoma (A549). Conditions: i.v. once a week for three weeks, 1 week after last treatment; optimal dose (mg/Kg): DXR 6, Ia 9, IIa 5. Type of data set: in vivo, human (tumor transplanted in Swissnude mice). As to the method:
as §2, §5, §6, §7, §8, §9

The next data set relates to Lewis Lung ca. The data set can be described thus: Effect against Lewis Lung ca. Type of data set: in vivo, mouse (C57 B1/6 mice). The following applies: for tumor inhibition / T/C (median survival time of treated mice/median survival time of control × 100): C57 B1/6 mice, 10^5 cells i.v., i.v. once a week for three weeks from day 1, optimal dose (mg/Kg): DXR 6-7.5, DNR 8, Ia 7.5, IIa 4; for tumor inhibition: 1 week after last treatment; for tumor growth inhibition, Lewis lung ca. (in words) / survival time of mice, Lewis lung ca. (in words): model sensitive to DXR; for survival time of mice, Lewis lung ca. (in words): versus DXR. On the procedure: as §2
^a experiment was performed in C57 B1/6 mice, inoculated i.v. with
as §6
starting on day 1 after tumor transplant
as §8, §9
^d median survival time of treated mice/median survival time of […]

The subject of data set [4] is Murine Mammary ca. (MTV/DXR). As to the kind of experiment: Effect against Murine Mammary ca. (MTV/DXR). Type of data set: in vivo. The following applies: C3H/He mice, i.v. once a week for three weeks, optimal dose (mg/Kg): DXR 6, IIa 5; for tumor inhibition: 1 week after last treatment. On the procedure: as §2
^a experiment was carried out in C3H/He mice, transplanted s.c. with
as §6, §7, §8, §9

The test system of a further data set is solid tumors. The data set can be described thus: evaluation against different human and solid tumors (Tables 4-8, overall). The following applies: IIa versus Ia. Type of data set: in vivo, human and murine. As to the method: as §2

Regarding `COc1cccc2c1C(=O)c1c(O)c3c(c(O)c1C2=O)C[C@@](O)(C(C)=O)C[C@@H]3O[C@H]1CC[C@H](N)[C@H](C)O1` [Ib, 3'-deamino-4'-deoxy-4'-aminodaunorubicin], in the data set with murine Gross leukemia, the “T/C % (median survival time of treated mice/median survival time of control × 100)” value is recorded as 240% and the Toxic death is on record as 0/10.

Consider `CC(=O)[C@]1(O)Cc2c(O)c3c(c(O)c2[C@@H](O[C@H]2CC[C@H](N)[C@H](C)O2)C1)C(=O)c1ccccc1C3=O` [Ia, 4-demethoxy-3'-deamino-4'-deoxy-4'-aminodaunorubicin], for which, in the data set with P388 ascitic leukemia, the “T/C % (median survival time of treated mice/median survival time of control × 100)” value was 200% and the Toxic death is listed as 0/10. For the same compound, the tumor inhibition in data set [1] was determined as 13%. Besides, in data set [2], the tumor inhibition was 11% and the “activity on LoVo tumor (in words)” value was “completly inactive”. For the same compound, the tumor inhibition in data set [3] is 13%. In addition, in the data set with Lewis Lung ca., the tumor inhibition is reported as 7%; the “T/C (median survival time of treated mice/median survival time of control × 100)” value came to 104%; the “tumor growth inhibition, Lewis lung ca. (in words)” value (“tumor growth inhibition” for short) is “inactive”; the “survival time of mice, Lewis lung ca. (in words)” value was “inactive”. For the same compound, in the data set on murine Gross leukemia, the “T/C % (median survival time of treated mice/median survival time of control × 100)” value was 240% and the Toxic death is 0/10.

As to `COc1cccc2c1C(=O)c1c(O)c3c(c(O)c1C2=O)C[C@@](O)(C(=O)CO)C[C@@H]3O[C@H]1C[C@H](N)[C@H](O)[C@H](C)O1` [DXR, doxorubicin, reference compound], the “T/C % (median survival time of treated mice/median survival time of control × 100)” value is reported as 225% in the data set on P388 ascitic leukemia and 200-250% in the data set on murine Gross leukemia. Besides, the Toxic death in the data set on P388 ascitic leukemia and in the data set with murine Gross leukemia was 0/10 each time. Moreover, the tumor inhibition in data set [1] is 30%; in data set [2], 62%; in data set [3], 44%; in data set [4] it was 52%; in the data set on Lewis Lung ca. it was 85-95%. Besides, the T/C (commonly the ratio of treated to control) in data set [4] amounted to 84%. For the same compound, the “T/C (median survival time of treated mice/median survival time of control × 100)” value with Lewis Lung ca. was 148-169%. The “tumor growth inhibition” value with Lewis Lung ca. is on record as “sensitive to DXR”. Also, the “activity on increase of the survival time of mice, Gross leukemia (in words)” value in the data set on murine Gross leukemia is “active”.

As for `COc1cccc2c1C(=O)c1c(O)c3c(c(O)c1C2=O)C[C@@](O)(C(=O)CO)C[C@@H]3O[C@H]1CC[C@H](N)[C@H](C)O1` [Id, 3'-deamino-4'-deoxy-4'-aminodoxorubicin], in the data set on murine Gross leukemia, the “T/C % (median survival time of treated mice/median survival time of control × 100)” value worked out at 200% and the Toxic death is given as 0/10.

As for `CC(=O)[C@]1(O)Cc2c(O)c3c(c(O)c2[C@@H](O[C@H]2CC[C@@H](N)[C@H](C)O2)C1)C(=O)c1ccccc1C3=O` [Compound IIa, 4-demethoxy-3'-deamino-4'-deoxy-4'-epi-aminodaunorubicin], in the data set on P388 ascitic leukemia, the “T/C % (median survival time of treated mice/median survival time of control × 100)” value is on record as 225% and the Toxic death is 0/10. The compound also came in with a tumor inhibition in data set [1] of 41%. In data set [2], the tumor inhibition is on record as 54-56% and the “activity on LoVo tumor (in words)” value is reported as “same activity than LoVo/DXR”. The same compound displayed a tumor inhibition in data set [3] of 49%. In data set [4], this compound returned a tumor inhibition of 44% and a T/C of 146%. Further, in the data set on Lewis Lung ca., the tumor inhibition was determined as 84%; the “T/C (median survival time of treated mice/median survival time of control × 100)” value is 122%; the “tumor growth inhibition” value is recorded as “active, as DXR”; the “survival time of mice, Lewis lung ca. (in words)” value was “less active”. Also, in the data set with murine Gross leukemia, the “T/C % (median survival time of treated mice/median survival time of control × 100)” value was determined as 160%, the Toxic death is listed as 0/10 and the “potency on Gross leukemia (in words)” value was “most potent”. Further, the “potency and activity against all solid tumors tested (in words)” value with solid tumors was “more potent and active than Ia”.

Consider `COc1cccc2c1C(=O)c1c(O)c3c(c(O)c1C2=O)C[C@@](O)(C(C)=O)C[C@@H]3O[C@H]1C[C@H](N)[C@H](O)[C@H](C)O1` [DNR, daunorubicin, reference compound], for which, in the data set on P388 ascitic leukemia, the “T/C % (median survival time of treated mice/median survival time of control × 100)” value was 222% and the Toxic death was 0/10. For the same compound, the “toxicity mark at the dose” value in data set [2] (8 mg/Kg i.v. once a week for three weeks, Swissnude mice) is listed as “tox”. The same compound gave a tumor inhibition in data set [2] of 54%. In the data set with Lewis Lung ca., the tumor inhibition is recorded as 47% and the “T/C (median survival time of treated mice/median survival time of control × 100)” value was 135%. Further, in the data set on murine Gross leukemia, the “T/C % (median survival time of treated mice/median survival time of control × 100)” value is recorded as 200%; the Toxic death is listed as 0/10; the “activity on increase of the survival time of mice, Gross leukemia (in words)” value is “active”.

Consider `C[C@@H]1O[C@@H](O[C@H]2C[C@](O)(C(=O)CO)Cc3c(O)c4c(c(O)c32)C(=O)c2ccccc2C4=O)CC[C@H]1N` [IIc, 4-demethoxy-3'-deamino-4'-deoxy-4'-epi-aminodoxorubicin], for which, in the data set on murine Gross leukemia, the “T/C % (median survival time of treated mice/median survival time of control × 100)” value worked out at 217%, the Toxic death is 0/10 and the “potency on Gross leukemia (in words)” value is “most potent”.
